Laboratory results from patent publication US20110251085A1, “IN VITRO METHOD TO DETERMINE WHETHER A DRUG CANDIDATE ACTIVE AGAINST A TARGET PROTEIN IS ACTIVE AGAINST A VARIANT OF SAID PROTEIN” (VIVALIS, priority 2008, published 2011).
Several values for one entry are separate records, joined by “and”; a condition that tells them apart may be missing. Equal values may be shown once.

Columns and labels:
[1] = tested on: Hela cells; assay: Cytotoxicity assay (XTT) on transfected cells; type: cell-based, human; details: 100 μM
Procedure: Viability measurements were performed on cells transfected and seeded in 96 well plates as described above and incubated with drugs for 24 hours. 0.15 mg/ml of XTT solution (Roche Diagnostics, Meylan, France) were added to each well and the plates incubated for 1 hour at 37° C. The optical density of each well's cell culture supernatant was analysed using a spectrophotometer (at 450 nm with deduction of background signal at 690 nm).

[2] = target: T1, native NS5BΔ21 (Hepatitis C virus genotype 1b, UniProt P26662); assay: 3D-Screen-NS5B platform, luciferase reporter, Hela cells, native NS5BΔ21; type: cell-based, HCV genotype 1b; details: for inhibition of the luciferase signal (in words): native NS5B platform, Hela cells; for IC50: native NS5BΔ21, 3D-sensor N21C272, 24 hours, read-out: IC50 (luciferase inhibition)
T1 construct: expressed in transfected cells; host or cells: Hela cells, plasmid pVVS478
Procedure: (§1) Transfections were performed for 2 hours in 100 mm dishes in 2 to 4 million cells with 5 to 20 ug of total DNA complexed to jetPEI (PolyPLus transfection, Illkirch, France) with a N/P ratio of 8 The optimal ratio between the plasmids encoding for the luciferase reporter, the target and the selected 3Dsensor was: 3 ug/1 ug/0.5 ug. Cells were dissociated and 25000 cells per well were seeded in 96 well culture treated plates (BD Biosciences, Erembodegem, Belgium).
Compound library's plates were thawed at room temperature. Drugs were handled by a Genesis workstation (Tecan, Lyon, France) and added to the cells at a 5 uM (in 0.5% DMSO) final concentration. Screening was performed by runs of twenty plates. Hits were identified by measurement of the luciferase activity.
(§2) Cell culture supernatant was discarded and 100 ul of Lysis buffer were added to each well. Following […] of vigorous shaking, the lysate was transferred to white opaque 96 well-plates and 100 ul of Luciferin buffer were added. Chemi-luminescence measurement was performed immediately using a Microlumat LB96 luminometer (Berthold, Thoiry, France) with 1 or 10 sec integration time.
Selected hits were synthesized and tested at concentrations varying between 0.01 uM and 100 uM final concentration so as to determine their IC50 on 3 independent experiments.
3D-sensors confirmed in yeast were further investigated in human cells. Among the reasons of choosing Hela cells figured their wide use, easiness of manipulation and capacity of replicating subgenomic HCV replicons (Zhu et al., 2003; Kato et al., 2005).
To validate whether drug's action on our system was stokiometric or not, Hela cells were transiently transfected with three expression plasmids encoding the reporter gene luciferase, the target protein and the conformation sensitive peptide N21C272. After incubation with increasing amounts of reference drugs cVVS-023476 or cVVS-023477, luciferase expression was measured.

[3] = target: T2, NS5BΔ21 S368A mutant (Hepatitis C virus genotype 1b, UniProt P26662, A2754S/A2757V/K2950R/L2476M/R2673K/S2787A/V2681I); assay: 3D-Screen-NS5B mutant profiling, Hela cells, S368A; type: cell-based, HCV genotype 1b; details: increasing concentrations, 24 hours
T2 construct: expressed in transfected cells; host or cells: Hela cells, plasmid pVVS799
Procedure: (§3) Percentages of reporter's inhibition were represented for cells incubated with a specific NS5B inhibitors at increasing concentrations for 24 hours.
as §1, §2
(§4) After incubation for 24 hours with increasing concentrations of cVVS023477 (a compound belonging to the Benzothiadiazin family) or cVVS-023476 (a compound belonging to the Indol N Acetamid family), luciferase expression was measured.

[4] = target: T3, NS5BΔ21 M414T mutant (Hepatitis C virus genotype 1b, UniProt P26662, M2833T); assay: 3D-Screen-NS5B mutant profiling, Hela cells, M414T; type: cell-based, HCV genotype 1b; details: increasing concentrations, 24 hours
T3 construct: expressed in transfected cells; host or cells: Hela cells, plasmid pVVS516
Procedure: as §3, §1, §2, §4

[5] = target: T4, NS5BΔ21 C316Y mutant (Hepatitis C virus genotype 1b, UniProt P26662, N2735Y); assay: 3D-Screen-NS5B mutant profiling, Hela cells, C316Y; type: cell-based, HCV genotype 1b; details: increasing concentrations, 24 hours
T4 construct: truncated HCV polymerase lacking the C-terminal 21 amino-acids; expressed in transfected cells; host or cells: Hela cells
Procedure: as §3, §1, §2, §4

[6] = target: T5, NS5BΔ21 (Hepatitis C virus genotype 1b, UniProt P26662); type: cell-based, HCV genotype 1b; details: selective medium lacking histidine, leucine and tryptophane, supplemented with ligand, X-Gal overlay
T5 construct: lexA/truncated HCV polymerase lacking the C-terminal 21 amino-acids fusion protein as a bait; expressed in transfected cells; host or cells: Saccharomyces cerevisiae L40, plasmid pVVS468
Procedure: Yeast cells carrying the bait (NS5BΔ21-LexA) were transformed with the prey represented by a library of random peptides (in frame with the viral VP16 activation domain). […] The interacting peptides were then tested in presence of ligands known to induce conformational changes in the bait NS5B.
The naïve yeast was transformed with the pVVS468 (NS5BΔ21 fused to LexA) according to the Lithium Acetate transformation protocol (Schiestl et al, 1989). […] Resulting double transformants were spread on SD Agar medium lacking Tryptophan and Leucine, and incubated for 48 hours at 30° C. Colonies were then scraped and mixed. 1/500th of the suspension obtained was plated on SD Agar medium lacking Tryptophan, Leucine and Histidine to identify HIS3 reporter's activation. After 3 to 5 days of growth, an X-Gal overlay was performed to identify LacZ activation. An X-Gal solution was mixed with an equal volume of 1% agarose cooled to 50° C. then poured slowly over yeast colonies on the surface of agar plates. The individual clones that stained blue were picked up to be grown overnight in deep wells in order to be further analyzed.
Yeast colonies containing a peptide interacting with the bait were grown overnight in 96-well deepwells in trp-leu-liquid medium. They were then spotted using a plugger either on trp-leu-his-or trp-leu-solid medium supplemented with different concentrations of specific or non specific drugs or an equivalent amount of solvent (DMSO). […] Result was confirmed at least 3 times.
Yeast two-hybrid experiments were carried in the L40 strain (ATCC, Molsheim, France) transformed with a lexA/truncated HCV polymerase lacking the C-terminal 21 amino-acids fusion protein as a bait and the VVS001 peptide library as a prey. […] Conformation sensitive peptides or “3D-sensors” were then identified by addition to the selected individual yeast colonies of cVVS-023477 or cVVS-023476, two anti-NS5B drugs known to induce conformational changes in the target polymerase (FIG. 1b).

[7] = tested on: ER; assay: Yeast two-hybrid spot test, control clone ER + 3D-sensor No 30-2; type: cell-based
Excerpt: (a) Isolation of peptides interacting with the NS5BΔ21 in the yeast two-hybrid-system. Yeast cells carrying the bait (NS5BΔ21-LexA) were transformed with the prey represented by a library of random peptides (in frame with the viral VP16 activation domain). Colonies growing on selective medium and staining blue allowed the isolation of individual peptides that would specifically interact with the polymerase. (b) Isolation of conformation sensitive peptides. The interacting peptides were then tested in presence of ligands known to induce conformational changes in the bait NS5B. The “3D-sensors” were thus identified as the ones whose binding to the target polymerase was prevented by known anti-NS5B. The corresponding colonies didn't show any expression of the selection or reporter gene. (c) Characterization of NS5BΔ21 “3D-sensors” in a spot test. Here were represented 2 selected yeast colonies: one carrying the ER and its specific peptide called No 30-2 isolated previously and used as a control, the other carrying the NS5BΔ21 and its specific peptide called N21C272. Both clones were spotted on selective medium lacking histidine, leucine and tryptophane, supplemented or not with polymerase ligands and overlayed with an X-Gal staining The NS5BΔ21+N21C272 clone grew on selective medium in the absence of any NS5B ligand and stained positive for LacZ. […]

[8] = target: native NS4A-NS3 full length protein (Hepatitis C virus genotype 1b, UniProt P26662); assay: 3D-Screen NS4A-NS3 full length platform, luciferase reporter, Hela cells, native; type: cell-based, HCV genotype 1b; parameters: the GSGS linker and the NS3 protease (residues 3-631); expressed in transfected cells; details: native NS4A-NS3 full length platform, Hela cells
Procedure: (§5) Cell culture supernatant was discarded and 100 ul of Lysis buffer were added to each well. Following 10 nm of vigorous shaking, the lysate was transferred to white opaque 96 well-plates and 100 ul of Luciferin buffer were added. Chemi-luminescence measurement was performed immediately using a Microlumat LB96 luminometer (Berthold, Thoiry, France) with 1 or 10 sec integration time.

[9] = target: T6, native NS4A-NS3 protease (Hepatitis C virus genotype 1b, UniProt P26662, I1158V/V1140I); assay: 3D-Screen NS4A-NS3 protease platform, luciferase reporter, Hela cells, native; type: cell-based, HCV genotype 1b; details: native NS4A-NS3 protease platform, Hela cells
T6 construct: the NS3 protease (residues 3-181); expressed in transfected cells; host or cells: Hela cells
Procedure: as §5
3D-sensors confirmed in yeast were further investigated in Hela cells.

[10] = tested on: NS5BΔ21 Indol sensitive mutants; type: cell-based, HCV genotype 1b
Procedure: as §3, §1, §2, §4

[11] = tested on: NS5B from genotype 1a or 1b; assay: Genotype profiling with the 3D-Screen platform, 3D-sensor N21I4; type: cell-based, HCV genotypes 1a and 1b; details: Huh-7 cells, genotype 1a versus 1b, increasing amounts
Excerpt: Percentages of luciferase inhibition in the presence of the Indol Acetamid NS5B specific ligand cVVS-023476 were represented for N21 I4 peptide targeting NS5B from genotype 1a and 1b.
HCV variants are classified into six genotypes (from 1 to 6) associated with a lower case letter to indicate the subtype (Le Guillou-Guillemette et al., 2007). Since sensitivity to drugs could vary from one HCV genotype to the other (Manns et al., 2007), the investors tested whether the 3D-Screen platform could be able to discriminate such differences which is highly important for preclinical profiling of drug candidates. The inventors thus verified that the 3D-Sensor N21I4 did interact with the polymerase NS5B from genotypes 1a and 1b in Hela and Huh7 cells in an equivalent way.
Huh-7 cells were transiently transfected with three expression plasmids encoding the reporter gene luciferase, the target NS5B from genotype 1a or 1b and the conformation sensitive peptide N21I4. After incubation with increasing amounts of cVVS-023476, luciferase expression was measured.

[12] = listed as benzothiadiazidic compound

Compound	toxicity (in words) [1]	luciferase inhibition ([2]; 1 uM final concentration, 24 hours, 3D-sensor N21C272, versus DMSO) [%]	luciferase inhibition ([2]; 10 uM final concentration, 24 hours, 3D-sensor N21C272, versus DMSO)	inhibition of the luciferase signal (in words) [2]	IC50 [2]	reporter inhibition (in words) [3]	reporter inhibition (in words) [4]	reporter inhibition (in words) [4, 12]	reporter inhibition (in words) [5]	reporter inhibition (in words) [5, 12]	growth on selective medium and LacZ staining of the NS5BΔ21+N21C272 yeast clone [6]	sensitivity of the control clone (ER + 3D sensor No 30.2 interaction) to ligand [7]	reporter inhibition (in words) [8]	reporter inhibition (in words) [9]	inhibition at 1 µM ([2]; HeLa, 1 uM final concentration, 24 hours, 3D-sensor N21C272, versus DMSO) [%]	inhibition at 10 µM ([2]; HeLa, 10 uM final concentration, 24 hours, 3D-sensor N21C272, versus DMSO) [%]	IC50 [10] [nM]	sensitivity of NS5B from two different genotypes to the drug [11]
N-1-cyclobutyl-4-hydroxyquinolon-3-yl-benzothiadiazin [cVVS-023477]	not toxic	51	90% and 83.2%+/−7.5	strongly reduced	3200 nM	didn't show any noticeable reporter inhibition	the 50% signal inhibition was not reached	didn't show any noticeable reporter inhibition	the 50% signal inhibition was not reached	didn't show any noticeable reporter inhibition	didn't show any growth	not affected						
CCN(CC)C1CCN(C(=O)Cn2c(-c3ccc(Cl)cc3)c(C3CCCCC3)c3ccc(C(=O)O)cc32)CC1 [cVVS-023476, 1-{[6-Carboxy-2-(4-chlorophenyl)-3-cyclohexyl-1H-indol-1-yl-]acetyl}-N,N-diethylpiperidin-4-aminium Chloride]				strong inhibition	300 nM and 200 to 2000 nM								only on the NS5B platform	only on the NS5B platform	67	82.6	200 to 2000	slightly different sensitivity
